Here are results for four compounds from patent US20240150387A1, “GLUCOCEREBROSIDE COMPOUND, PHARMACEUTICAL COMPOSITION THEREOF AND USE THEREOF” (DONGGUAN HEC CORDYCEPS R&D CO., LTD., priority 2021, published 2024).

Structures are written as SMILES.

Data set [1] deals with spleen lymphocytes induced by Con A. Nature of the data set: Detection of cell proliferation inhibition: Con A-induced spleen lymphocyte proliferation (CCK-8). The settings on record: Mus musculus; for inhibition at 2 µM: concentration 2 μM; for inhibition at 2 µM / inhibition at 4 µM / inhibition at 8 µM / inhibition at 16 µM / inhibition at 32 µM / inhibition at 64 µM: read-out: Inhibitory rate (%) on the proliferation of spleen lymphocytes induced by Con A; for inhibition at 4 µM: concentration 4 μM; for inhibition at 8 µM: concentration 8 μM; for inhibition at 16 µM: concentration 16 μM; for inhibition at 32 µM: concentration 32 μM; for inhibition at 64 µM: concentration 64 μM; for IC50: linear fit of inhibition rate against log concentration, ConA final 7.5 μg/mL, 48 h. It counts as cell-based. The protocol:
(§1) 3.2.1 Cell acquisition: BABL/C male mice ere sacrificed after eyeball extraction and bloodletting, soaked in 75% ethanol for 10 mint, and the spleen was aseptically removed in an ultra-clean workbench, and placed in a petri dish filled with PBS. A syringe was used to absorb PBS to rinse the surface and interior of the spleen until the spleen turned white, then the spleen was gently torn up with tweezers. The spleen was gently crushed with a 5 mL syringe on the steel mesh to make a single-cell suspension, which was filtered through a 200-mesh sieve. The filtrate was centrifuged for 10 min (1000 rpm/min); after centrifugation, the supertnatant was discarded. After the cell pellet was resuspended with PBS, the mixture was centrifuged again for 10 min (1000 rpm/min), and the operation was repeated once; 2 mL of erythrocyte lysate was added to the cell pellet. After the mixture was mixed evenly and allowed to stand for 5 min, 8 mL of PBS was added to nx evenly, and then the mixture was centrifuged at 1000 rpm min for 5 min. After centrifugation, the supernatant was discarded, the cell pellet was resuspended with PBS, then the mixture was centrifuged again for 10 min (1000 rpm/min), and the operation was repeated once; after centrifugation, the supematant ias discarded, the cell pellet was suspended in 1 mL of RPMI-1640 complete medium (containing 10% fetal bovine serum and 1% double antibody). 2-3 mL medium was added to dilute. A cell counter was used for cell counting (new cell type), and complete medium was used to adjust the cell concentration to 2*10^6 cells/mL.
(§2) 3.2.2 Stunple preparation: appropriate amount of compounds 1, 2, 3, and 4 were dissolved in DMSO respectively to prepare 64 mM mother solution, and then diluted with medium to obtain solutions with a concentration of 128 μM respectively, and then gradiently diluted with medium to obtain sample dilutions with concentrations of 64 μM, 32 μM, 16 μM, 8 μM, and 4 μM, respectively.
3.2.4 Detection of cell proliferation inhibition: the prepared cell suspension was added to the 96-well plate. The seeding cell density was 2*10^5 cells/well, and the added cell volume was 100 μL. Samples were added at 100 μL, with 5 replicate wells for each concentration, and then incubated in a 37° C., 5% CO2 incubator for 12 h. 10 μL of the supernatant were carefully suck out. 10 μL ConA with a concentration of 150 μg/mL (final concentration: 7.5 μg/mL) was added to the corresponding group, and then the mixture was incubated in a 37° C., 5% CO2 incubator for 48 h, and finally incubated in a 37° C. incubator for 4-5 hours with serum-free medium and 10% CCK-8. The absorbance (A) value of each well was detected at 450 nm by a microplate reader. A negative control group and a model control group were set up, which were cells+1640 medium, cells+ConA+1640 medium, respectively.
The proliferation inhibition rate of the sample to spleen lymphocytes was calculated according to the following formula:
Proliferation inhibition rate %=[(Am−As)/(Am−Ac)]×100% • Am: Absorbance of model control group (spleen lymphocytes+ConA+CCK-8) • As: Absorbance of sample group (spleen lymphocytes+samples to be tested+ConA+CCK-8) • Ac: Absorbance of negative control group (spleen lymphocytes+CCK-8)
The experimental results of compounds 1. 2, 3.

For the next data set, the system named is spleen lymphocytes. Nature of the data set: Detection of cell viability (CCK-8) of spleen lymphocytes. The following applies: 64, 32, 16, 8, 4, and 2 μM; 60 h incubation; compared with the control group. It counts as cell-based, mouse. As to the method:
as §1, §2
3.2.3 Detection of cell viability: the prepared cell suspension was added to a 96-well plate. The seeding cell density was 2*10^5 cells/well, and the added cell volume was 100 μL. Compounds 1, 2, 3, and 4 were added at 100 μL/well, with 5 replicate wells for each concentration, and then incubated in a 37° C. 5% CO2 incubator for 60 h, and then incubated in a 37° C. incubator for 4-5 hours with serum-free medium and 10% CCK-8. The absorbance (A) value of each well was detected at 450 nm by a inicroplate reader. […]
3.2.5 Data processing: the proliferation rate (viability) of the sample to spleen hymphocytes was calculated according to the following formula:
Proliferation rate %=[As/Ac]×100% • As: Absorbance of sample group (spleen lymphocytes+samples to be tested+CCK-8) • Ac: Absorbance of control group (spleen lymphocytes+CCK-8)

Regarding `CCCCCCCCCCCCC/C=C/[C@@H](O)C(=O)N[C@@H](CO[C@@H]1O[C@H](CO)[C@@H](O)[C@H](O)[C@H]1O)[C@H](O)/C=C/CC/C=C(\C)CCCCCCCCC` [Compound 1], in data set [1], the inhibition at 2 µM was 130%, the inhibition at 4 µM turned out to be 136%, the inhibition at 8 µM turned out to be 146% and the inhibition at 16 µM stood at 150%. In addition, in data set [1], the inhibition at 32 µM amounted to 148%, the inhibition at 64 µM came to 152% and the concentration for half-maximal inhibition (IC50) (usually the concentration that inhibits the measured activity by half) worked out at 4 µM. Further, the “cytotoxic effect on spleen lymphocytes” value in the data set with spleen lymphocytes was “no cytotoxic effect”.

On to `CCCCCCCCC/C=C/CC/C=C/[C@@H](O)[C@H](CO[C@@H]1O[C@H](CO)[C@@H](O)[C@H](O)[C@H]1O)NC(=O)[C@H](O)/C=C/CCCCCCCCCCCC` [Compound 3], for which, in data set [1], the inhibition at 2 µM was determined as 4.5%, the inhibition at 4 µM stood at 30.9%, the inhibition at 8 µM came out at 37.4% and the inhibition at 16 µM worked out at 52%. In data set [1], the inhibition at 32 µM came out at 84.2%, the inhibition at 64 µM turned out to be 123% and the IC50 stood at 19.5 µM. Moreover, the “cytotoxic effect on spleen lymphocytes” value in the data set with spleen lymphocytes is listed as “no cytotoxic effect”.

Consider `CCCCCCCCCCCCCCCC(=O)N[C@@H](CO[C@@H]1O[C@H](CO)[C@@H](O)[C@H](O)[C@H]1O)[C@H](O)/C=C/CC/C=C(\C)CCCCCCCCC` [Compound 4], for which, in data set [1], the inhibition at 2 µM came out at 72.2%, the inhibition at 4 µM stood at 70.7%, the inhibition at 8 µM is 100% and the inhibition at 16 µM turned out to be 102%. Also, in data set [1], the inhibition at 32 µM came out at 120%, the inhibition at 64 µM was found to be 120% and the IC50 was 1.5 µM. The “cytotoxic effect on spleen lymphocytes” value with spleen lymphocytes is “no cytotoxic effect”.

In the case of `CCCCCCCCCCC/C=C/[C@@H](O)C(=O)N[C@@H](CO[C@@H]1O[C@H](CO)[C@@H](O)[C@H](O)[C@H]1O)[C@H](O)/C=C/CC/C=C(\C)CCCCCCCCC` [Compound 2], in data set [1], the inhibition at 2 µM was determined as 43.7%, the inhibition at 4 µM came to 54.3%, the inhibition at 8 µM turned out to be 77.7% and the inhibition at 16 µM was determined as 100%. In data set [1], the inhibition at 32 µM worked out at 126%, the inhibition at 64 µM worked out at 140% and the concentration for half-maximal inhibition (IC50) amounted to 10.4 µM. Also, the “cytotoxic effect on spleen lymphocytes” value with spleen lymphocytes is “no cytotoxic effect”.
